Measurements reported in the NIST ThermoML archive (doi:10.1016/j.jct.2016.10.016).

Assay: mn = molality of the nth substance listed, in mol/kg
Conditions: 101.3 kPa, Liquid

COC(=O)[C@H](C)N.Cl [methyl L-alaninate hydrochloride] + O
Conditions	speed of sound [m/s]
278.15 K, Frequency=2 MHz, Linear variable-path acoustic interferometer, m1 = 0.0501	1432
278.15 K, Frequency=2 MHz, Linear variable-path acoustic interferometer, m1 = 0.0614	1432.9
278.15 K, Frequency=2 MHz, Linear variable-path acoustic interferometer, m1 = 0.0701	1433.8
278.15 K, Frequency=2 MHz, Linear variable-path acoustic interferometer, m1 = 0.082	1435.4
278.15 K, Frequency=2 MHz, Linear variable-path acoustic interferometer, m1 = 0.091	1437.2
278.15 K, Frequency=2 MHz, Linear variable-path acoustic interferometer, m1 = 0.1004	1437.6
278.15 K, Frequency=2 MHz, Linear variable-path acoustic interferometer, m1 = 0.1099	1438.9
278.15 K, Frequency=2 MHz, Linear variable-path acoustic interferometer, m1 = 0.1219	1440
278.15 K, Frequency=2 MHz, Linear variable-path acoustic interferometer, m1 = 0.1296	1441.4
278.15 K, Frequency=2 MHz, Linear variable-path acoustic interferometer, m1 = 0.1411	1442.6
278.15 K, Frequency=2 MHz, Linear variable-path acoustic interferometer, m1 = 0.1515	1443.6
278.15 K, Frequency=2 MHz, Linear variable-path acoustic interferometer, m1 = 0.1618	1444.4
288.15 K, Frequency=3 MHz, Sing-around technique in a fixed-path interferometer, m1 = 0.0502	1470.7
288.15 K, Frequency=3 MHz, Sing-around technique in a fixed-path interferometer, m1 = 0.0601	1471.8
288.15 K, Frequency=3 MHz, Sing-around technique in a fixed-path interferometer, m1 = 0.07	1473.1
288.15 K, Frequency=3 MHz, Sing-around technique in a fixed-path interferometer, m1 = 0.0801	1474.1
288.15 K, Frequency=3 MHz, Sing-around technique in a fixed-path interferometer, m1 = 0.0901	1475.2
288.15 K, Frequency=3 MHz, Sing-around technique in a fixed-path interferometer, m1 = 0.1003	1476.3
288.15 K, Frequency=3 MHz, Sing-around technique in a fixed-path interferometer, m1 = 0.1101	1477.1
288.15 K, Frequency=3 MHz, Sing-around technique in a fixed-path interferometer, m1 = 0.1202	1477.8
288.15 K, Frequency=3 MHz, Sing-around technique in a fixed-path interferometer, m1 = 0.13	1478.9
288.15 K, Frequency=3 MHz, Sing-around technique in a fixed-path interferometer, m1 = 0.1401	1480
288.15 K, Frequency=3 MHz, Sing-around technique in a fixed-path interferometer, m1 = 0.1504	1481.1
288.15 K, Frequency=3 MHz, Sing-around technique in a fixed-path interferometer, m1 = 0.1603	1482.2
298.15 K, Frequency=3 MHz, Sing-around technique in a fixed-path interferometer, m1 = 0.0486	1500.6
298.15 K, Frequency=3 MHz, Sing-around technique in a fixed-path interferometer, m1 = 0.0601	1502.2
298.15 K, Frequency=3 MHz, Sing-around technique in a fixed-path interferometer, m1 = 0.0697	1503
298.15 K, Frequency=3 MHz, Sing-around technique in a fixed-path interferometer, m1 = 0.0819	1503.6
298.15 K, Frequency=3 MHz, Sing-around technique in a fixed-path interferometer, m1 = 0.0899	1504.7
298.15 K, Frequency=3 MHz, Sing-around technique in a fixed-path interferometer, m1 = 0.0963	1505.2
298.15 K, Frequency=3 MHz, Sing-around technique in a fixed-path interferometer, m1 = 0.11	1506.4
298.15 K, Frequency=3 MHz, Sing-around technique in a fixed-path interferometer, m1 = 0.1184	1507.1
298.15 K, Frequency=3 MHz, Sing-around technique in a fixed-path interferometer, m1 = 0.1302	1508
298.15 K, Frequency=3 MHz, Sing-around technique in a fixed-path interferometer, m1 = 0.1401	1508.9
298.15 K, Frequency=3 MHz, Sing-around technique in a fixed-path interferometer, m1 = 0.1507	1509.8
298.15 K, Frequency=3 MHz, Sing-around technique in a fixed-path interferometer, m1 = 0.1601	1510.3

Conditions	mass density [kg/m3]
278.15 K, Pycnometric method, m1 = 0.0501	1001.79
278.15 K, Pycnometric method, m1 = 0.0614	1002.2
278.15 K, Pycnometric method, m1 = 0.0701	1002.52
278.15 K, Pycnometric method, m1 = 0.082	1002.95
278.15 K, Pycnometric method, m1 = 0.091	1003.28
278.15 K, Pycnometric method, m1 = 0.1004	1003.62
278.15 K, Pycnometric method, m1 = 0.1099	1003.97
278.15 K, Pycnometric method, m1 = 0.1219	1004.4
278.15 K, Pycnometric method, m1 = 0.1296	1004.68
278.15 K, Pycnometric method, m1 = 0.1411	1005.1
278.15 K, Pycnometric method, m1 = 0.1515	1005.48
278.15 K, Pycnometric method, m1 = 0.1618	1005.86
288.15 K, Vibrating tube method, m1 = 0.0502	1000.8
288.15 K, Vibrating tube method, m1 = 0.0601	1001.13
288.15 K, Vibrating tube method, m1 = 0.07	1001.47
288.15 K, Vibrating tube method, m1 = 0.0801	1001.8
288.15 K, Vibrating tube method, m1 = 0.0901	1002.14
288.15 K, Vibrating tube method, m1 = 0.1003	1002.49
288.15 K, Vibrating tube method, m1 = 0.1101	1002.82
288.15 K, Vibrating tube method, m1 = 0.1202	1003.16
288.15 K, Vibrating tube method, m1 = 0.13	1003.49
288.15 K, Vibrating tube method, m1 = 0.1401	1003.83
288.15 K, Vibrating tube method, m1 = 0.1504	1004.18
288.15 K, Vibrating tube method, m1 = 0.1603	1004.51
298.15 K, Vibrating tube method, m1 = 0.0486	998.75
298.15 K, Vibrating tube method, m1 = 0.0601	999.01
298.15 K, Vibrating tube method, m1 = 0.0697	999.32
298.15 K, Vibrating tube method, m1 = 0.0819	999.68
298.15 K, Vibrating tube method, m1 = 0.0899	999.97
298.15 K, Vibrating tube method, m1 = 0.0963	1000.19
298.15 K, Vibrating tube method, m1 = 0.11	1000.61
298.15 K, Vibrating tube method, m1 = 0.1184	1000.89
298.15 K, Vibrating tube method, m1 = 0.1302	1001.2
298.15 K, Vibrating tube method, m1 = 0.1401	1001.54
298.15 K, Vibrating tube method, m1 = 0.1507	1001.93
298.15 K, Vibrating tube method, m1 = 0.1601	1002.17

COC(=O)[C@@H](N)C(C)C.Cl [methyl L-valinate hydrochloride] + O
Conditions	speed of sound [m/s]
278.15 K, Frequency=2 MHz, Linear variable-path acoustic interferometer, m1 = 0.0389	1431.7
278.15 K, Frequency=2 MHz, Linear variable-path acoustic interferometer, m1 = 0.0499	1433.3
278.15 K, Frequency=2 MHz, Linear variable-path acoustic interferometer, m1 = 0.0592	1434.2
278.15 K, Frequency=2 MHz, Linear variable-path acoustic interferometer, m1 = 0.0705	1436.3
278.15 K, Frequency=2 MHz, Linear variable-path acoustic interferometer, m1 = 0.0811	1437.4
278.15 K, Frequency=2 MHz, Linear variable-path acoustic interferometer, m1 = 0.0888	1438.7
278.15 K, Frequency=2 MHz, Linear variable-path acoustic interferometer, m1 = 0.1015	1441.1
278.15 K, Frequency=2 MHz, Linear variable-path acoustic interferometer, m1 = 0.1094	1441.3
278.15 K, Frequency=2 MHz, Linear variable-path acoustic interferometer, m1 = 0.1204	1443.8
278.15 K, Frequency=2 MHz, Linear variable-path acoustic interferometer, m1 = 0.1307	1445.3
278.15 K, Frequency=2 MHz, Linear variable-path acoustic interferometer, m1 = 0.1428	1446.5
278.15 K, Frequency=2 MHz, Linear variable-path acoustic interferometer, m1 = 0.1528	1448
288.15 K, Frequency=3 MHz, Sing-around technique in a fixed-path interferometer, m1 = 0.0507	1472.3
288.15 K, Frequency=3 MHz, Sing-around technique in a fixed-path interferometer, m1 = 0.0607	1473.5
288.15 K, Frequency=3 MHz, Sing-around technique in a fixed-path interferometer, m1 = 0.0699	1474.5
288.15 K, Frequency=3 MHz, Sing-around technique in a fixed-path interferometer, m1 = 0.0798	1475.7
288.15 K, Frequency=3 MHz, Sing-around technique in a fixed-path interferometer, m1 = 0.09	1476.9
288.15 K, Frequency=3 MHz, Sing-around technique in a fixed-path interferometer, m1 = 0.0999	1478.3
288.15 K, Frequency=3 MHz, Sing-around technique in a fixed-path interferometer, m1 = 0.1099	1479.2
288.15 K, Frequency=3 MHz, Sing-around technique in a fixed-path interferometer, m1 = 0.1201	1480.4
288.15 K, Frequency=3 MHz, Sing-around technique in a fixed-path interferometer, m1 = 0.1295	1481.6
288.15 K, Frequency=3 MHz, Sing-around technique in a fixed-path interferometer, m1 = 0.1399	1482.8
288.15 K, Frequency=3 MHz, Sing-around technique in a fixed-path interferometer, m1 = 0.1497	1484.3
288.15 K, Frequency=3 MHz, Sing-around technique in a fixed-path interferometer, m1 = 0.16	1485.9
298.15 K, Frequency=3 MHz, Sing-around technique in a fixed-path interferometer, m1 = 0.0405	1501.4
298.15 K, Frequency=3 MHz, Sing-around technique in a fixed-path interferometer, m1 = 0.0504	1502.5
298.15 K, Frequency=3 MHz, Sing-around technique in a fixed-path interferometer, m1 = 0.06	1503.7
298.15 K, Frequency=3 MHz, Sing-around technique in a fixed-path interferometer, m1 = 0.0703	1504.9
298.15 K, Frequency=3 MHz, Sing-around technique in a fixed-path interferometer, m1 = 0.0804	1505.9
298.15 K, Frequency=3 MHz, Sing-around technique in a fixed-path interferometer, m1 = 0.0903	1507.1
298.15 K, Frequency=3 MHz, Sing-around technique in a fixed-path interferometer, m1 = 0.1001	1508.1
298.15 K, Frequency=3 MHz, Sing-around technique in a fixed-path interferometer, m1 = 0.1103	1509.6
298.15 K, Frequency=3 MHz, Sing-around technique in a fixed-path interferometer, m1 = 0.12	1510.3
298.15 K, Frequency=3 MHz, Sing-around technique in a fixed-path interferometer, m1 = 0.1305	1511.4
298.15 K, Frequency=3 MHz, Sing-around technique in a fixed-path interferometer, m1 = 0.1401	1513
298.15 K, Frequency=3 MHz, Sing-around technique in a fixed-path interferometer, m1 = 0.1514	1513.8

Conditions	mass density [kg/m3]
278.15 K, Pycnometric method, m1 = 0.0389	1001.17
278.15 K, Pycnometric method, m1 = 0.0499	1001.51
278.15 K, Pycnometric method, m1 = 0.0592	1001.8
278.15 K, Pycnometric method, m1 = 0.0705	1002.15
278.15 K, Pycnometric method, m1 = 0.0811	1002.48
278.15 K, Pycnometric method, m1 = 0.0888	1002.72
278.15 K, Pycnometric method, m1 = 0.1015	1003.1
278.15 K, Pycnometric method, m1 = 0.1094	1003.35
278.15 K, Pycnometric method, m1 = 0.1204	1003.7
278.15 K, Pycnometric method, m1 = 0.1307	1004
278.15 K, Pycnometric method, m1 = 0.1428	1004.38
278.15 K, Pycnometric method, m1 = 0.1528	1004.7
288.15 K, Vibrating tube method, m1 = 0.0507	1000.66
288.15 K, Vibrating tube method, m1 = 0.0607	1000.96
288.15 K, Vibrating tube method, m1 = 0.0699	1001.25
288.15 K, Vibrating tube method, m1 = 0.0798	1001.55
288.15 K, Vibrating tube method, m1 = 0.09	1001.87
288.15 K, Vibrating tube method, m1 = 0.0999	1002.17
288.15 K, Vibrating tube method, m1 = 0.1099	1002.46
288.15 K, Vibrating tube method, m1 = 0.1201	1002.78
288.15 K, Vibrating tube method, m1 = 0.1295	1003.07
288.15 K, Vibrating tube method, m1 = 0.1399	1003.4
288.15 K, Vibrating tube method, m1 = 0.1497	1003.7
288.15 K, Vibrating tube method, m1 = 0.16	1004
298.15 K, Vibrating tube method, m1 = 0.0405	998.23
298.15 K, Vibrating tube method, m1 = 0.0504	998.52
298.15 K, Vibrating tube method, m1 = 0.06	998.78
298.15 K, Vibrating tube method, m1 = 0.0703	999.08
298.15 K, Vibrating tube method, m1 = 0.0804	999.37
298.15 K, Vibrating tube method, m1 = 0.0903	999.66
298.15 K, Vibrating tube method, m1 = 0.1001	999.92
298.15 K, Vibrating tube method, m1 = 0.1103	1000.24
298.15 K, Vibrating tube method, m1 = 0.12	1000.51
298.15 K, Vibrating tube method, m1 = 0.1305	1000.78
298.15 K, Vibrating tube method, m1 = 0.1401	1001.06
298.15 K, Vibrating tube method, m1 = 0.1514	1001.39

O [water] + COC(=O)[C@@H](N)C(C)C.Cl
Conditions	speed of sound [m/s]
278.15 K, Frequency=2 MHz, Linear variable-path acoustic interferometer, m2 = 0	1426.2

Conditions	mass density [kg/m3]
278.15 K, Pycnometric method, m2 = 0	999.96

O [water] + COC(=O)[C@H](C)N.Cl
Conditions	speed of sound [m/s]
278.15 K, Frequency=2 MHz, Linear variable-path acoustic interferometer, m2 = 0	1426.2

Conditions	mass density [kg/m3]
278.15 K, Pycnometric method, m2 = 0	999.96
